Patent US9873680B2 (Gilead Sciences, Inc., priority 2014, dated 2018)
Where a name gives a salt, the structure may show the parent alone. Read-outs that look alike come from different tables or passages of the source.

Assays:
[1] = test system: HIV-IIIb; assay: Test A: Antiviral Assay in MT4 Cells; assay type: cell-based, HIV-1; settings: for inhibition at 2 µM: 2 μM drug concentration, read-out: Response at 2 μM (percent inhibition of virus-induced cell killing)
Procedure: Test A: Antiviral Assay in MT4 Cells
MT-4 cells were next mixed with HIV-IIIb at an m.o.i of 0.003 for 1 hour, after which time 35 μL of virus/cell mixture (2000 cells) was immediately added to each well containing 40 μL of diluted compound. The plates were then incubated at 37° C. for 5 days. After 5 days of incubation, 25 μl of 2× concentrated CellTiter-Glo™ Reagent (catalog #G7571, Promega Biosciences, Inc., Madison, Wis.) was added to each well containing MT-4 cells. Cell lysis was carried out by incubating at room temperature for 10 min and then chemiluminescence was read.

[2] = Test B: Cytotoxicity Assay; assay type: cell-based; settings: human, uninfected MT-4 cells, CellTiter-Glo
Procedure: Test B: Cytotoxicity Assay Compound cytotoxicity and the corresponding CC50 values was determined using the same protocol as described in the antiviral assay (Test A) except that uninfected cells were used.

[3] = Human immunodeficiency virus 1, IIIB, MT4, 0.2 μM drug concentration, comparison with previously published compounds, read-out: Response at 0.2 μM (percent inhibition of virus-induced cell killing)
[4] = Human immunodeficiency virus 1, IIIB, MT4, comparison with previously published compounds
[5] = Human immunodeficiency virus 1, MT4, 120 h, 0.2 μM drug concentration, MT-4 cells infected with HIV-IIIb, 5 days, values normalized to 100%, average over time, read-out: % inhibition at 0.2 μM (percent inhibition of virus-induced cell killing)

| Structure (SMILES) | inhibition at 0.2 µM [1, 3] [%] | inhibition at 2 µM [1, 4] [%] | inhibition at 0.2 µM [1, 5] [%] | CC50 at 5 days [2] [µM] | inhibition at 0.2 µM ([1]; Human immunodeficiency virus 1, IIIB, MT4, 120 h, read-out: % inhibition at 0.2 μM (percent inhibition of virus-induced cell killing)) [%] |
| --- | --- | --- | --- | --- | --- |
| NC(=O)c1cc(-c2ccc(C#CC3(O)CC(F)(F)C3)nc2[C@H](Cc2cc(F)cc(F)c2)NC(=O)Cn2nc(C(F)(F)F)c3c2C(F)(F)[C@@H]2C[C@H]32)ccc1F [Compound 107, 5-(6-((3,3-difluoro-1-hydroxycyclobutyl)ethynyl)-2-((S)-1-(2-((3bS,4aR)-5,5-difluoro-3-(trifluoromethyl)-3b,4,4a,5-tetrahydro-1H-cyclopropa[3,4]cyclopenta[1,2-c]pyrazol-1-yl)acetamido)-2-(3,5-difluorophenyl)ethyl)pyridin-3-yl)-2-fluorobenzamide] | 99 | 99 | 99 | 3.64 |  |
| NC(=O)c1cc(-c2ccc(C#CC3(O)CCCCC3)nc2[C@H](Cc2cc(F)cc(F)c2)NC(=O)Cn2nc(C(F)(F)F)c3c2C(F)(F)[C@@H]2C[C@H]32)ccc1F [Compound 16, 5-(2-((S)-1-(2-((3bS,4aR)-5,5-difluoro-3-(trifluoromethyl)-3b,4,4a,5-tetrahydro-1H-cyclopropa[3,4]cyclopenta[1,2-c]pyrazol-1-yl)acetamido)-2-(3,5-difluorophenyl)ethyl)-6-((1-hydroxycyclohexyl)ethynyl)pyridin-3-yl)-2-fluorobenzamide] | 76 | 77 | 76 | 3 |  |
| Cn1nc(NS(C)(=O)=O)c2c(Cl)ccc(-c3ccc(C#CC4CCCNC4)nc3[C@H](Cc3cc(F)cc(F)c3)NC(=O)Cn3nc(C(F)(F)F)c4c3C(F)(F)[C@@H]3C[C@H]43)c21 (stereo partly drawn) [Compound 73, N-((1S)-1-(3-(4-chloro-1-methyl-3-(methylsulfonamido)-1H-indazol-7-yl)-6-(piperidin-3-ylethynyl)pyridin-2-yl)-2-(3,5-difluorophenyl)ethyl)-2-((3bS,4aR)-5,5-difluoro-3-(trifluoromethyl)-3b,4,4a,5-tetrahydro-1H-cyclopropa[3,4]cyclopenta[1,2-c]pyrazol-1-yl)acetamide] |  |  |  | 6 | 100 |
| O=C(Cn1nc(C(F)F)c2c1C(F)(F)CCC2(F)F)N[C@@H](Cc1cc(F)cc(F)c1)c1nc(C#Cc2cncnc2)ccc1-c1ccc2c(c1)C(=O)NC21CC1 [Compound 6, (S)-2-(3-(difluoromethyl)-4,4,7,7-tetrafluoro-4,5,6,7-tetrahydro-1H-indazol-1-yl)-N-(2-(3,5-difluorophenyl)-1-(3-(3′-oxospiro[cyclopropane-1,1′-isoindolin]-5′-yl)-6-(pyrimidin-5-ylethynyl)pyridin-2-yl)ethyl)acetamide] |  |  | 0 | 1.66 |  |
| CN1CC(NC(C)(C)C#Cc2ccc(-c3ccc(Cl)c4c(NS(C)(=O)=O)nn(C)c34)c([C@H](Cc3cc(F)cc(F)c3)NC(=O)Cn3nc(C(F)(F)F)c4c3C(F)(F)[C@@H]3C[C@H]43)n2)C1 [Compound 42, N—((S)-1-(3-(4-chloro-1-methyl-3-(methylsulfonamido)-1H-indazol-7-yl)-6-(3-methyl-3-((1-methylazetidin-3-yl)amino)but-1-yn-1-yl)pyridin-2-yl)-2-(3,5-difluorophenyl)ethyl)-2-((3bS,4aR)-5,5-difluoro-3-(trifluoromethyl)-3b,4,4a,5-tetrahydro-1H-cyclopropa[3,4]cyclopenta[1,2-c]pyrazol-1-yl)acetamide] |  |  | 90 | 2.77 |  |
| O=C(Cn1nc(C(F)F)c2c1C(F)(F)CCC2(F)F)N[C@@H](Cc1cc(F)cc(F)c1)c1nc(C#Cc2cnc3[nH]ccc3c2)ccc1-c1cnc2[nH]ccc2c1 [Compound 4C, (S)—N-(1-(6-((1H-pyrrolo[2,3-b]pyridin-5-yl)ethynyl)-3-(1H-pyrrolo[2,3-b]pyridin-5-yl)pyridin-2-yl)-2-(3,5-difluorophenyl)ethyl)-2-(3-(difluoromethyl)-4,4,7,7-tetrafluoro-4,5,6,7-tetrahydro-1H-indazol-1-yl)acetamide] |  |  | 0 | 1.27 |  |
| Cn1nc(NS(C)(=O)=O)c2cccc(-c3ccc(C#CC4(O)COC4)nc3[C@H](Cc3cc(F)cc(F)c3)NC(=O)Cn3nc(C(F)(F)F)c4c3C(F)(F)[C@@H]3C[C@H]43)c21 [Compound 20E, 2-((3bS,4aR)-5,5-difluoro-3-(trifluoromethyl)-3b,4,4a,5-tetrahydro-1H-cyclopropa[3,4]cyclopenta[1,2-c]pyrazol-1-yl)-N—((S)-2-(3,5-difluorophenyl)-1-(6-((3-hydroxyoxetan-3-yl)ethynyl)-3-(1-methyl-3-(methylsulfonamido)-1H-indazol-7-yl)pyridin-2-yl)ethyl)acetamide] |  |  | 94 | 27.7 |  |
| O=C(Cn1nc(C(F)F)c2c1C(F)(F)CCC2(F)F)N[C@@H](Cc1cc(F)cc(F)c1)c1nc(C#Cc2cncnc2)ccc1-c1ccc2c(c1)C(=O)NC2 [Compound 1J, (S)-2-(3-(difluoromethyl)-4,4,7,7-tetrafluoro-4,5,6,7-tetrahydro-1H-indazol-1-yl)-N-(2-(3,5-difluorophenyl)-1-(3-(3-oxoisoindolin-5-yl)-6-(pyrimidin-5-ylethynyl)pyridin-2-yl)ethyl)acetamidehydrochloride] |  |  | 81 | > 53.2 |  |
| Cn1nc(NS(C)(=O)=O)c2c(Cl)ccc(-c3ccc(C#CC4(O)CC4)nc3[C@H](Cc3cc(F)cc(F)c3)NC(=O)Cn3nc(C(F)(F)F)c4c3C(F)(F)[C@@H]3C[C@H]43)c21 [Compound 64, N—((S)-1-(3-(4-chloro-1-methyl-3-(methylsulfonamido)-1H-indazol-7-yl)-6-((1-hydroxycyclopropyl)ethynyl)pyridin-2-yl)-2-(3,5-difluorophenyl)ethyl)-2-((3bS,4aR)-5,5-difluoro-3-(trifluoromethyl)-3b,4,4a,5-tetrahydro-1H-cyclopropa[3,4]cyclopenta[1,2-c]pyrazol-1-yl)acetamide] |  |  | 98 | 16.1 |  |
| Cn1nc(NS(C)(=O)=O)c2c(Cl)ccc(-c3ccc(C#CC4(O)CCC4)nc3[C@H](Cc3cc(F)cc(F)c3)NC(=O)Cn3nc(C(F)F)c4c3C(F)(F)[C@@H]3C[C@H]43)c21 [Compound 69, N—((S)-1-(3-(4-chloro-1-methyl-3-(methylsulfonamido)-1H-indazol-7-yl)-6-((1-hydroxycyclobutyl)ethynyl)pyridin-2-yl)-2-(3,5-difluorophenyl)ethyl)-2-((3bS,4aR)-3-(difluoromethyl)-5,5-difluoro-3b,4,4a,5-tetrahydro-1H-cyclopropa[3,4]cyclopenta[1,2-c]pyrazol-1-yl)acetamide] |  |  | 96 | 13.6 |  |
| Cn1cnc(C(O)C#Cc2ccc(-c3ccc(Cl)c4c(NS(C)(=O)=O)nn(C)c34)c([C@H](Cc3cc(F)cc(F)c3)NC(=O)Cn3nc(C(F)(F)F)c4c3C(F)(F)[C@@H]3C[C@H]43)n2)c1 (stereo partly drawn) [Compound 56B, N-((1S)-1-(3-(4-chloro-1-methyl-3-(methylsulfonamido)-1H-indazol-7-yl)-6-(3-hydroxy-3-(1-methyl-1H-imidazol-4-yl)prop-1-yn-1-yl)pyridin-2-yl)-2-(3,5-difluorophenyl)ethyl)-2-((3bS,4aR)-5,5-difluoro-3-(trifluoromethyl)-3b,4,4a,5-tetrahydro-1H-cyclopropa[3,4]cyclopenta[1,2-c]pyrazol-1-yl)acetamide] |  |  | 84 | 9.02 |  |
| CN1CC(O)(C#Cc2ccc(-c3cccc4c(NS(C)(=O)=O)nn(C)c34)c([C@H](Cc3cc(F)cc(F)c3)NC(=O)Cn3nc(C(F)(F)F)c4c3C(F)(F)[C@@H]3C[C@H]43)n2)C1 [Compound 23C, 2-((3bS,4aR)-5,5-difluoro-3-(trifluoromethyl)-3b,4,4a,5-tetrahydro-1H-cyclopropa[3,4]cyclopenta[1,2-c]pyrazol-1-yl)-N—((S)-2-(3,5-difluorophenyl)-1-(6-((3-hydroxy-1-methylazetidin-3-yl)ethynyl)-3-(1-methyl-3-(methylsulfonamido)-1H-indazol-7-yl)pyridin-2-yl)ethyl)acetamide] |  |  | 100 | 9.19 |  |
| Cn1nc(NS(C)(=O)=O)c2c(Cl)ccc(-c3ccc(C#CC4(CO)CC4)nc3[C@H](Cc3cc(F)cc(F)c3)NC(=O)Cn3nc(C(F)F)c4c3C(F)(F)[C@@H]3C[C@H]43)c21 [Compound 94B, N—((S)-1-(3-(4-chloro-1-methyl-3-(methylsulfonamido)-1H-indazol-7-yl)-6-((1-(hydroxymethyl)cyclopropyl)ethynyl)pyridin-2-yl)-2-(3,5-difluorophenyl)ethyl)-2-((3bS,4aR)-3-(difluoromethyl)-5,5-difluoro-3b,4,4a,5-tetrahydro-1H-cyclopropa[3,4]cyclopenta[1,2-c]pyrazol-1-yl)acetamide] |  |  | 91 | 12.4 |  |
